Data reported in patent publication US11365199B2, “Pyrazole compounds as modulators of FSHR and uses thereof” (Merck Patent GmbH, priority 2013, dated 2022).
Where two headings read alike, the source gives them in different places.

Key:
FSHR = biological target: T1, FSHR (Homo sapiens, UniProt P23945); test: EC50 of cyclic AMP production in CHO FSHR cells + EC20 FSH (Assay A); type: cell-based
T1 construct: expressed in transfected cells; host or cells: CHO (Cho-FSHR-LUC-1-1-43)
T1 sequence (P23945 18-695): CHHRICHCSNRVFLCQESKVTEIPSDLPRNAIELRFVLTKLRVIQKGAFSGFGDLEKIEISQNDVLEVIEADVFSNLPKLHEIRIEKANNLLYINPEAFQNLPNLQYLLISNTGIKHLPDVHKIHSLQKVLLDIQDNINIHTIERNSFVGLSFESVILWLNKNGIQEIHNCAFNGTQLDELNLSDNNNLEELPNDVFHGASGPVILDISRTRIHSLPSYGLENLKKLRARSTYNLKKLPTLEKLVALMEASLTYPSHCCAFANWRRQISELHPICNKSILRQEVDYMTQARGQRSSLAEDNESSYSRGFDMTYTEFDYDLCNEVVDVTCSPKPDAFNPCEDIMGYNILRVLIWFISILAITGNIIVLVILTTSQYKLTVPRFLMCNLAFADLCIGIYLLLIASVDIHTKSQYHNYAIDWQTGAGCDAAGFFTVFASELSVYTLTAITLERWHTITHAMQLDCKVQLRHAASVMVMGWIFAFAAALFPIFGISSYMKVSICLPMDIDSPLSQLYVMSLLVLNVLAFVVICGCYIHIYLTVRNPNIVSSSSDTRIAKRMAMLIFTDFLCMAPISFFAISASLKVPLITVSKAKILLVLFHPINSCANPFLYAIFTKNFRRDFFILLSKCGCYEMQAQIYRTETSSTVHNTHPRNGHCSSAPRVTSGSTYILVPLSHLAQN
Method in brief: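 Cho-FSHR-LUC cells were exposed to compound dilution series with EC20 FSH ([…]) and 200 μM IBMX for 1 h at 37° C. cAMP was read by HTRF (665/620 nm ratio). Effects are percent of the maximal FSH standard response.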

[1] = biological target: T2, follicle-stimulating hormone (FSH) receptor (Rattus norvegicus, UniProt P20395); test: Rat granulosa EC50 FSH (Assay B); type: cell-based
T2 construct: endogenous in cells; host or cells: primary rat granulosa cells
T2 sequence (P20395 18-692): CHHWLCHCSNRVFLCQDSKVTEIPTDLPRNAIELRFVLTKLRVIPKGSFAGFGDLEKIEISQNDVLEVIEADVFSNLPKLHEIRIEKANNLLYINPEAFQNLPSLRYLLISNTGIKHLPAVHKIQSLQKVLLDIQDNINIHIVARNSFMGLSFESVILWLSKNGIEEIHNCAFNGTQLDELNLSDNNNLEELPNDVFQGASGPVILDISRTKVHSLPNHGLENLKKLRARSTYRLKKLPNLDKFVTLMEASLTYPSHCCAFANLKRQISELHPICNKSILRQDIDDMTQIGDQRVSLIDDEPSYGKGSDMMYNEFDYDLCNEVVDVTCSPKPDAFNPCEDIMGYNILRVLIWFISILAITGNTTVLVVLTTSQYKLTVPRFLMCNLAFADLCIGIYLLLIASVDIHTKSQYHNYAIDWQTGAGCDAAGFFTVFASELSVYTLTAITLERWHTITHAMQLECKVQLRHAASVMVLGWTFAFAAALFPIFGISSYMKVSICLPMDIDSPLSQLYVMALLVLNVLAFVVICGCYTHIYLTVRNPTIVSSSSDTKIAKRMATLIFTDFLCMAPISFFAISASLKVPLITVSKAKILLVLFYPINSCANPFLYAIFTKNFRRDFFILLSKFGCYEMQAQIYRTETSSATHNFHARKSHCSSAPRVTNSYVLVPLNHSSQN
Method: Rat Granulosa EC50 FSH (Assay B)
The assay was performed pursuant to the teaching of Yanofsky et al. (2006) Allosteric activation of the follicle-stimulating hormone (FSH) receptor by selective, nonpeptide agonists (JBC 281(19): 13226-13233, which is incorporated by reference in the disclosure of the invention).

[2] = CHO FSHR cells + EC20 FSH, cAMP HTRF, read-out: Assay A: EC50 of cyclic AMP production
[3] = rat granulosa cells, read-out: Assay B: Rat granulosa EC50 FSH

SMILES	EC50 (FSHR; [2])	Emax at 30 µM ([1]; @ 30 μM, read-out: Assay B: percental effect (response) relative to the maximum response of the FSH standard)	EC50 [1, 3]	EC50 (FSHR)	EC50 [1]
COc1cc2c(cc1-c1ccn(C)c1)-c1c(c(C(=O)NC3(CCO)COC3)nn1-c1ccsc1)CO2 [Compound 186, 7-Methoxy-8-(1-methyl-1H-pyrrol-3-yl)-1-thiophen-3-yl-1,4-dihydro-chromeno[4,3-c]pyrazole-3-carboxylic acid [3-(2-hydroxy-ethyl)-oxetan-3-yl]-amide]	< 100 nM		100 to 1000 nM		
COCCCn1cc(-c2cc3c(cc2OC)OCc2c(C(=O)N4CCOCC4(C)C)nn(-c4ccsc4)c2-3)cn1 [Compound 208, (3,3-Dimethyl-morpholin-4-yl)-{7-methoxy-8-[1-(3-methoxy-propyl)-1H-pyrazol-4-yl]-1-thiophen-3-yl-1,4-dihydro-chromeno[4,3-c]pyrazol-3-yl}-methanone]	< 100 nM		< 100 nM		
COc1cc2c(cc1-c1cccn1C)-c1c(c(C(=O)N3CCOCC3(C)C)nn1-c1ccsc1)CO2 [Compound 125, (3,3-Dimethyl-morpholin-4-yl)-[7-methoxy-8-(1-methyl-1H-pyrrol-2-yl)-1-thiophen-3-yl-1,4-dihydro-chromeno[4,3-c]pyrazol-3-yl]-methanone]	< 100 nM		1000 to 5000 nM		
[2H]C([2H])([2H])OC1(CN(C(=O)c2nn(-c3ccsc3)c3c2COc2cc(OC)c(-c4ccn(C)n4)cc2-3)C([2H])([2H])[2H])COC1 [Compound 167]	100 to 1000 nM		100 to 1000 nM		
COc1cc2c(cc1-c1c(C)nn(C)c1C)-c1c(c(C(=O)N3CCOCC3(C)C)nn1-c1ccsc1)CO2 [Compound 121, (3,3-Dimethyl-morpholin-4-yl)-[7-methoxy-1-thiophen-3-yl-8-(1,3,5-trimethyl-1H-pyrazol-4-yl)-1,4-dihydro-chromeno[4,3-c]pyrazol-3-yl]-methanone]	< 100 nM		> 5000 nM		
CCCn1cc(-c2cc3c(cc2OC)OCc2c(C(=O)N4CCOCC4(C)C)nn(-c4ccsc4)c2-3)cn1 [Compound 211, (3,3-Dimethyl-morpholin-4-yl)-[7-methoxy-8-(1-propyl-1H-pyrazol-4-yl)-1-thiophen-3-yl-1,4-dihydro-chromeno[4,3-c]pyrazol-3-yl]-methanone]	< 100 nM		< 100 nM		
[2H]C([2H])([2H])OCC1(N(C(=O)c2nn(-c3ccsc3)c3c2COc2cc(OC)c(-c4ccnn4C)cc2-3)C([2H])([2H])[2H])COC1 [Compound 119]	< 100 nM		1000 to 5000 nM		
[2H]C([2H])([2H])n1cc(-c2cc3c(cc2OC)OCc2c(C(=O)N4CCOCC4(C)C)nn(-c4ccsc4)c2-3)cn1 [Compound 96]	< 100 nM		100 to 1000 nM		
COc1cc2c(cc1C1=NC([Si](C)(C)C)N=N1)-c1c(c(C(=O)N3CCOCC3(C)C)nn1-c1ccsc1)CO2 (centres unmarked) [Compound 139, (3,3-Dimethyl-morpholin-4-yl)-[7-methoxy-1-thiophen-3-yl-8-(5-trimethylsilanyl-5H-[1,2,4]triazol-3-yl)-1,4-dihydro-chromeno[4,3-c]pyrazol-3-yl]-methanone]				< 100 nM	1000 to 5000 nM
COc1cc2c(cc1-c1ccn(C)n1)-c1c(c(C(=O)N3CCOCC34COC4)nn1-c1ccsc1)CO2 [Compound 154, (2,8-Dioxa-5-aza-spiro[3.5]non-5-yl)-[7-methoxy-8-(1-methyl-1H-pyrazol-3-yl)-1-thiophen-3-yl-1,4-dihydro-chromeno[4,3-c]pyrazol-3-yl]-methanone]	< 100 nM		1000 to 5000 nM		

Now from value to molecule, other results behind:

EC50 (FSHR; [2])	Emax at 30 µM ([1]; @ 30 μM, read-out: Assay B: percental effect (response) relative to the maximum response of the FSH standard)	EC50 [1, 3]	SMILES	EC50 (FSHR)	EC50 [1]
1000 to 5000 nM	30%		COc1cc2c(cc1C=C(C)C)-c1c(c(C(=O)N3CCCC(C(=O)O)CC3)nn1-c1ccsc1)CO2 (centres unmarked) [Compound 18, 1-[7-Methoxy-8-(2-methyl-propenyl)-1-thiophen-3-yl-1,4-dihydro-chromeno[4,3-c]pyrazole-3-carbonyl]-azepane-4-carboxylic acid]		
< 100 nM		100 to 1000 nM	[2H]C([2H])([2H])N(C(=O)c1nn(-c2ccsc2)c2c1COc1cc(OC)c(-c3ccn(C)c3)cc1-2)C1(C)COC1 [Compound 115]		
< 100 nM		< 100 nM	COc1cc2c(cc1C=C(C)C)-c1c(c(C(=O)N(C)CCN3CCOC3=O)nn1-c1ccsc1)CO2 [Compound 23, 7-Methoxy-8-(2-methyl-propenyl)-1-thiophen-3-yl-1,4-dihydro-chromeno[4,3-c]pyrazole-3-carboxylic Acid methyl-[2-(2-oxo-oxazolidin-3-yl)-ethyl]-amide]		
< 100 nM		100 to 1000 nM	COc1cc2c(cc1-c1ccn(C)n1)-c1c(c(C(=O)N3CCOCC3C)nn1-c1ccsc1)CO2 (centres unmarked) [Compound 218]		
< 100 nM		100 to 1000 nM	COc1cc2c(cc1C(N)=O)-c1c(c(C(=O)N(C)C(C)(C)C)nn1-c1ccsc1)CO2 [Compound 50, 7-Methoxy-1-thiophen-3-yl-1,4-dihydro-chromeno[4,3-c]pyrazole-3,8-dicarboxylic Acid 8-amide 3-(tert-butyl-methyl-amide)]		
< 100 nM		100 to 1000 nM	COc1cc2c(cc1C1=CCCCO1)-c1c(c(C(=O)N(C)C(C)(C)C)nn1-c1ccsc1)CO2 [Compound 148, 8-(5,6-Dihydro-4H-pyran-2-yl)-7-methoxy-1-thiophen-3-yl-1,4-dihydro-chromeno[4,3-c]pyrazole-3-carboxylic acid tert-butyl-methyl-amide]		
100 to 1000 nM		100 to 1000 nM	COc1cc2c(cc1-c1ccn(C)c1)-c1c(c(C(=O)N3CCN(C(=O)OC(C)(C)C)CC3(C)C)nn1-c1ccsc1)CO2 [Compound 157, 4-[7-Methoxy-8-(1-methyl-1H-pyrrol-3-yl)-1-thiophen-3-yl-1,4-dihydro-chromeno[4,3-c]pyrazole-3-carbonyl]-3,3-dimethyl-piperazine-1-carboxylic acid tert-butyl ester]		
< 100 nM		100 to 1000 nM	COc1cc2c(cc1C1=CCOC1)-c1c(c(C(=O)N(C)C(C)(C)C)nn1-c1ccsc1)CO2 [Compound 151, 8-(2,5-Dihydro-furan-3-yl)-7-methoxy-1-thiophen-3-yl-1,4-dihydro-chromeno[4,3-c]pyrazole-3-carboxylic acid tert-butyl-methyl-amide]		
< 100 nM		100 to 1000 nM	COc1cc2c(cc1-c1ccn(C)n1)-c1c(c(C(=O)N3CCOCC3(C)C)nn1-c1ccsc1)CO2 [Compound 94, (3,3-Dimethyl-morpholin-4-yl)-[7-methoxy-8-(1-methyl-1H-pyrazol-3-yl)-1-thiophen-3-yl-1,4-dihydro-chromeno[4,3-c]pyrazol-3-yl]-methanone]		
< 100 nM		100 to 1000 nM	COc1cc2c(cc1C1=CCCC1)-c1c(c(C(=O)N(C)C(C)(C)C)nn1-c1ccsc1)CO2 [Compound 149, 8-Cyclopent-1-enyl-7-methoxy-1-thiophen-3-yl-1,4-dihydro-chromeno[4,3-c]pyrazole-3-carboxylic acid tert-butyl-methyl-amide]		
< 100 nM		100 to 1000 nM	[2H]C([2H])([2H])OCC1(N(C(=O)c2nn(-c3ccsc3)c3c2COc2cc(OC)c(CC(C)C)cc2-3)C([2H])([2H])[2H])COC1 [Compound 162]		
< 100 nM		1000 to 5000 nM	COc1cc2c(cc1CC(C)C)-c1c(c(C(=O)N(C)C(C)(C)C)nn1-c1cccs1)CO2 [Compound 91, 8-Isobutyl-7-methoxy-1-thiophen-2-yl-1,4-dihydro-chromeno[4,3-c]pyrazole-3-carboxylic Acid tert-butyl-methyl-amide]		
